Entries after “also recorded” stand apart in the source; their conditions may differ.

The text below walks through data of US7947697B1, “8-(3-pentylamino)-2-methyl-3-(2-chloro-4-methoxyphenyl)-6,7-dihydro-5H-cyclopenta[d] pyrazolo[1,5-a]pyrimidine methanesulfonate as a CRF antagonist” (Ono Pharmaceutical Co., Ltd., priority 2003, dated 2011).

Series [1] can be described thus: Thermal stability by differential scanning calorimetry (DSC). It counts as physicochemical. The note with it: for thermal stability: DSC chart / heat. An excerpt:
On the other hand, DSC chart of 8-(3-pentylamino)-2-methyl-3-(2-chloro-4-methoxyphenyl)-6,7-dihydro-5H-cyclopenta[d]pyrazolo[1,5-a]pyrimidine hydrochloride described in WO 02/053565 is shown in FIG. 2.
It was very surprising that the difference of the salt influenced heat stability like this greatly, and it was not easily expected.
(3) Differential Scanning Calorimeter (DSC)
For orientation: DSC measures the heat that a sample takes up or gives off during a temperature scan.

The nature of series [2]: Stability of the crystal for humidity and light. The series is classed as physicochemical.
Series [3] in a line: Solubility. It counts as physicochemical.
Series [4] is described as follows: Toxicity.
Series [5] is described as follows: Disposition.
Series [6] concerns the target T1, human CRF1 receptor (Homo sapiens, UniProt P34998).
T1 construct: expressed in transfected cells; F-12 medium fits
T1 sequence (P34998 24-415): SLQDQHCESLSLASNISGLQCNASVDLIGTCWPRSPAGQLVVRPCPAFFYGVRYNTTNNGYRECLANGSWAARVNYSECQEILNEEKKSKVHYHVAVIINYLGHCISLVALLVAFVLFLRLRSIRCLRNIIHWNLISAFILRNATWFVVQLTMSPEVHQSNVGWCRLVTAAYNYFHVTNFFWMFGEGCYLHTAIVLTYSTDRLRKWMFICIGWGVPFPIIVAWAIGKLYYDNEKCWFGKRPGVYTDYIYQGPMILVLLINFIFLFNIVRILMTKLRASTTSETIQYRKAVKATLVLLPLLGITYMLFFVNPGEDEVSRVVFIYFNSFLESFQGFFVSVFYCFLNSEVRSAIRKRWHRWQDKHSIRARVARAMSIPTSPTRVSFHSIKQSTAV
Put plainly: Receptor antagonistic activity (cyclic AMP assay). The series is classed as cell-based. The note with it: cells expressing human CRF1 receptor; human/rat CRF-stimulated intracellular cyclic AMP; read-out: antagonist activity on CRF receptor (IC50). How it is done:
Receptor Antagonistic Activity (Cyclic AMP Assay):
A cell line expressing a human CRF1 receptor was cultured using 10% bovine embryo serum and 1% F-12 nutrient mixture containing antibiotics and antifungal under 37° C., 5% carbonic anhydride, 95% air. On the day before a measurement of cyclic AMP, the cell seed to 96-well plate to be 1×10^4 cell/well. On the measurement day, the cell was washed twice with F-12 nutrient mixture, and F-12 nutrient mixture/1 mM 3-isobutyl-1-methylxanthin (assay medium) (178 μL) was added to each well. After they were incubated for 10 minutes at 37° C., each of various concentrated solutions of the test compound (2 μL) was added, or DMSO (2 μL) was added to CRF group and blank group. After they were incubated for 15 minutes at 37° C., 10 nM assay medium containing human/rat CRF (20 μL) was added to the test compound group and CRF group. To the blank group, an assay medium containing 0.00001% acetic acid (20 μL) was added. Furthermore, they were incubated for 15 minutes at 37° C. […] The cumulative dosage of intracellular cyclic AMP was measured by Biotrak enzyme immunoassay system (Amersham Biosciences). […] The IC50 values calculated by nonlinear regression analysis with logarithm concentrate of the compound as the autonomous variable and cyclic AMP cumulative dosage as an induced variable

The target of series [7] is T1, human CRF1 receptor. Put plainly: Binding assay ([125I] h/r CRF, cell membrane fraction). As to conditions: membrane fraction of CHO-K1 cells expressing human CRF1 receptor; [125I] h/r CRF 0.25 nM; 2 hours, room temperature; read-out: affinity on CRF1 receptor (IC50). How it is done:
Cell Membrane Preparation
After a cell line expressing a human CRF1 receptor (expressed cell line: CHO-K1 cells) was cultured to reach confluence, the cells were harvested with a scraper. Harvested cells were washed twice with PBS before being suspended in a binding assay buffer (Tris-HCl (50 mM, pH 7.0), EDTA (2 mM, pH 8.0), and MgCl2 (10 mM)) cooled by ice. Suspended cells were homogenized with a Downs-type homogenizer and subjected to centrifugation at 10,000 g to collect the membrane fraction. The harvested cell membrane fraction was re-suspended with a small quantity of the binding assay buffer, and further diluted with said buffer to 1 mg/mL. The membrane fraction thus obtained was used for binding assay.
Fifty μL of [^125I] h/r CRF prepared to 0.5 nM with binding assay buffer was added to siliconized 1.5 mL tubes. Each of 1 μL of compounds diluted in appropriate multiples, DMSO (for total binding use) and h/r CRF solution (100 μM, for the non-specific binding use) was added to the tubes. Samples of 50 μL each of the membrane fraction preparation were added to the tubes to initiate the reaction (final concentration of [^125I] h/r CRF: 0.25 nM), then the mixtures were incubated for 2 hours at room temperature. […] Radioactivity values of the respective tubes were measured with a γ-counter. […]

As to `C1=Cc2cccc(OC[C@H]3CNCCO3)c2C1.O=S(=O)(O)c1ccccc1` [benzenesulfonate], in series [1], the thermal stability result is recorded as “superior in thermal stability”.
As for `CCC(CC)Nc1c2c(nc3c(-c4ccc(OC)cc4Cl)c(C)nn13)CCC2.Cc1ccc(S(=O)(=O)O)cc1` [tosylate, 8-(3-pentylamino)-2-methyl-3-(2-chloro-4-methoxyphenyl)-6,7-dihydro-5H-cyclopenta[d]pyrazolo[1,5-a]pyrimidine tosylate], in series [1], the thermal stability entry is on record as “superior in thermal stability”.
Same read-out and setting: the same measure for `CC1(C)C2CCC1(CS(=O)(=O)O)C(=O)C2.CCC(CC)Nc1c2c(nc3c(-c4ccc(OC)cc4Cl)c(C)nn13)CCC2` [camphorsulfonate (D, L, or DL)]: “superior in thermal stability”.
With `CCC(CC)Nc1c2c(nc3c(-c4ccc(OC)cc4Cl)c(C)nn13)CCC2.Cl` [the hydrochloride compound, 8-(3-pentylamino)-2-methyl-3-(2-chloro-4-methoxyphenyl)-6,7-dihydro-5H-cyclopenta[d]pyrazolo[1,5-a]pyrimidine hydrochloride, reference compound], the thermal stability entry in series [1] (hydrochloride) was “unstable compound to heat”; in series [1] (listed as 8-(3-pentylamino)-2-methyl-3-(2-chloro-4-methoxyphenyl)-6,7-dihydro-5H-cyclopent, hydrochloride), “poor”. For the same compound, the “temperature at which the DSC curve changed significantly” value in series [1] (DSC chart FIG. 2, then changed gradually after over 50° C.) is ~40 °C.
A word on the IC50: it is the point on the concentration scale where inhibition reaches its midpoint. On to `CCC(CC)Nc1c2c(nc3c(-c4ccc(OC)cc4Cl)c(C)nn13)CCC2` [compound (1), 8-(3-pentylamino)-2-methyl-3-(2-chloro-4-methoxyphenyl)-6,7-dihydro-5H-cyclopenta[d]pyrazolo[1,5-a]pyrimidine methanesulfonate], for which, in series [2], the stability for humidity entry is “steady”. The stability for light result in series [2] is “steady”. Moreover, the solubility entry in series [3] is listed as “remarkably superior”. In addition, the toxicity entry in series [4] was “very low”. In addition, the disposition result in series [5] is “remarkably superior”. Further, the thermal stability result in series [1] (listed as the methanesulfonate compound, methanesulfonate) is on record as “superior thermal stability”; in series [1] (methanesulfonate), “steady; also recorded: superior in thermal stability”. In addition, the IC50 in series [6] and in series [7] was < 1000 nM in each case.
